Values quoted from earlier work in publication PMC9171782 (Proceedings of the National Academy of Sciences of the …, 2022).

Legend:
[1] = system: GLP-1R with mutation of W33; settings: mutation of W33 conserved in human and primate GLP-1Rs

Compound	agonist activity at W33-mutated GLP-1R [1]	insulinotropic activity upon oral intake (cynomolgus monkeys)	bioavailability (noninjectable formulation in the clinic)	gastrointestinal complaints (such as nausea and vomiting)
Cc1cc(-n2nc3c(c2-n2ccn(-c4ccc5c(cnn5C)c4F)c2=O)[C@H](C)N(C(=O)c2cc4cc(N5CCOC(C)(C)C5)ccc4n2[C@@]2(c4noc(=O)[nH]4)C[C@@H]2C)CC3)cc(C)c1F [CHU-128]	failed to elicit agonist activity	–	–	–
Cc1cc(-n2nc3c(c2-n2ccn(-c4ccc5c(cnn5C)c4F)c2=O)[C@H](C)N(C(=O)c2cc4cc([C@H]5CCOC(C)(C)C5)ccc4n2[C@@]2(c4noc(=O)[nH]4)C[C@@H]2C)CC3)cc(C)c1F [LY3502970]	failed to elicit agonist activity	demonstrated	–	–
N#Cc1ccc(COc2cccc(C3CCN(Cc4nc5ccc(C(=O)O)cc5n4C[C@@H]4CCO4)CC3)n2)c(F)c1 [PF-06882961]	failed to elicit agonist activity	demonstrated	–	–
N#Cc1ccc(COc2cccc(C3=CCN(Cc4nc5ccc(C(=O)O)nc5n4C[C@@H]4CCO4)CC3)n2)c(F)c1 [RGT1383]	failed to elicit agonist activity	–	–	–
Semaglutide	–	–	low bioavailability	frequent gastrointestinal complaints
